Results published in patent US9533071B2, “Wound healing compositions including cyanoacrylate monomers and phenytoin” (Adhezion Biomedical, LLC, priority 2010, dated 2017).

What was measured:
[1] = Incorporation (miscibility) of phenytoin into cyanoacrylate monomers; assay type: physicochemical
Protocol: According to the present invention, an effective amount of wound healing promoter, is incorporated into the pre-stabilized liquid monomeric cyanoacrylate adhesive compositions to form a homogeneous liquid adhesive product. […] After continuous stirring at this elevated temperature, the mixture of cyanaocrylate monomers and wound healing accelerator becomes a homogeneous solution within about 1 to 2 hours. Standard mixing equipment and techniques are suitable. The 5,5-[…], including phenytoin are readily available from major chemical distributors. […] Table 1 below summarizes the results of incorporating phenytoin into different cyanoacrylate monomer solutions at the elevated temperatures. […] At the elevated temperatures, phenytoin is soluble in both 2-octyl cyanoacrylate (OCA) and n-butyl cyanoacrylate (BCA). It is also interesting to note that phenytoin is more soluble in shorter alkyl chain cyanoacrylate (BCA) than in longer alkyl chain cyanoacrylate (OCA).

[2] = test system: surgical wounds of periodontal patients; conditions: topical; cited from earlier work
bacterial load of wounds = conditions: clinical studies; cited from earlier work

- Solubility in 2-octyl cyanoacrylate (OCA) ([1]; elevated temperatures): soluble
- Solubility in n-butyl cyanoacrylate (BCA) ([1]; elevated temperatures): soluble
- Solubility in 2-octyl cyanoacrylate (OCA) monomer ([1]; room temperature): not soluble
- Solubility in BCA compared with OCA ([1]; shorter vs longer alkyl chain cyanoacrylate): more soluble
Compound: O=C1NC(=O)C(c2ccccc2)(c2ccccc2)N1 [phenytoin, 5,5-diphenylhydantoin]
- Inflammation and pain [2]: reduced inflammation and pain
- Wound healing [2]: accelerated wound healing
- Bacterial load of wounds (bacterial load of wounds): decrease the bacterial load of wounds
